Tested on: K86415-001-R-J1-PDC complex spheroids, viability
Experiment: Anticancer human tumor K86415-001-R-J1-PDC patient-derived lung adenocarcinoma cell line growth inhibition [RAS]
Settings: for IC50: curve of first compound; for viability, T/C: stronger effect = lower value
Summary of the method: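 Multi-cell-type spheroids: tumor cells plus HUVEC endothelial cells and mesenchymal stem cells. RAS-pathway inhibitors were combined with targeted agents, each dosed in half-log steps down from clinical Cmax, or from 10 microM when Cmax was unknown.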
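Further: spheroids exposed to agents for seven days before readout.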

`C=CC(=O)N1CCN(c2nc(OCC3CCCN3C)nc3c(F)c(-c4nc(N)cc(C)c4C(F)(F)F)c(Cl)cc23)C(C)C1` (centres undefined) + CCn1c(-c2cccnc2C(C)OC)c2c3cc(ccc31)N1CCOC(CC(NC(=O)C(C(C)C)N(C)C(=O)C3(F)CCN(C(=O)C#CC(C)(C)N(C)C)CC3)C(=O)N3CCCC(N3)C(=O)OCC(C)(C)C2)C1 gave an IC50 (second compound 0.000949 µM) of under 3.16 nM, an IC50 (second compound 0.003 µM) of under 3.16 nM and an IC50 (second compound 0.00949 µM) of under 3.16 nM. The IC50 (second compound 0.03 µM) was under 3.16 nM, the IC50 (second compound 0.0949 µM) was under 3.16 nM and the IC50 (second compound 0.3 µM) was under 3.16 nM. It also gave a viability, T/C (second compound 0.000949 µM, first compound 0.00316 µM) of 13.8%, a viability, T/C (second compound 0.000949 µM, first compound 0.01 µM) of 12.1% and a viability, T/C (second compound 0.000949 µM, first compound 0.0316 µM) of 9.94%. The viability, T/C (second compound 0.000949 µM, first compound 0.1 µM) was 9.02%, the viability, T/C (second compound 0.000949 µM, first compound 0.316 µM) was 11.8% and the viability, T/C (second compound 0.000949 µM, first compound 1 µM) was 9.5%. For the same molecule, the viability, T/C (second compound 0.003 µM, first compound 0.00316 µM) was 13.5%, the viability, T/C (second compound 0.003 µM, first compound 0.01 µM) was 12.9% and the viability, T/C (second compound 0.003 µM, first compound 0.0316 µM) was 12.2%. For the same molecule, the viability, T/C (second compound 0.003 µM, first compound 0.1 µM) was 11.1%, the viability, T/C (second compound 0.003 µM, first compound 0.316 µM) was 12% and the viability, T/C (second compound 0.003 µM, first compound 1 µM) was 9.09%. The viability, T/C (second compound 0.00949 µM, first compound 0.00316 µM) was 13.7%, the viability, T/C (second compound 0.00949 µM, first compound 0.01 µM) was 10.7% and the viability, T/C (second compound 0.00949 µM, first compound 0.0316 µM) was 14.6%. It also gave a viability, T/C (second compound 0.00949 µM, first compound 0.1 µM) of 10.1%, a viability, T/C (second compound 0.00949 µM, first compound 0.316 µM) of 10.7% and a viability, T/C (second compound 0.00949 µM, first compound 1 µM) of 11.4%. It also gave a viability, T/C (second compound 0.03 µM, first compound 0.00316 µM) of 13%, a viability, T/C (second compound 0.03 µM, first compound 0.01 µM) of 13.4% and a viability, T/C (second compound 0.03 µM, first compound 0.0316 µM) of 11.1%. The viability, T/C (second compound 0.03 µM, first compound 0.1 µM) was 11.8%, the viability, T/C (second compound 0.03 µM, first compound 0.316 µM) was 11.7% and the viability, T/C (second compound 0.03 µM, first compound 1 µM) was 16.2%. For the same molecule, the viability, T/C (second compound 0.0949 µM, first compound 0.00316 µM) was 11%, the viability, T/C (second compound 0.0949 µM, first compound 0.01 µM) was 10.7% and the viability, T/C (second compound 0.0949 µM, first compound 0.0316 µM) was 13.2%. For the same molecule, the viability, T/C (second compound 0.0949 µM, first compound 0.1 µM) was 11.2%, the viability, T/C (second compound 0.0949 µM, first compound 0.316 µM) was 12.8% and the viability, T/C (second compound 0.0949 µM, first compound 1 µM) was 15.8%. The viability, T/C (second compound 0.3 µM, first compound 0.00316 µM) was 12%, the viability, T/C (second compound 0.3 µM, first compound 0.01 µM) was 12.6% and the viability, T/C (second compound 0.3 µM, first compound 0.0316 µM) was 14.4%. It also gave a viability, T/C (second compound 0.3 µM, first compound 0.1 µM) of 11.2%, a viability, T/C (second compound 0.3 µM, first compound 0.316 µM) of 14% and a viability, T/C (second compound 0.3 µM, first compound 1 µM) of 14.1%.

`CC1(C)CCC(Nc2ncc(C(F)(F)F)c(-c3c[nH]c4c(P(C)(C)=O)c(C#N)ccc34)n2)CN1` (centres undefined) + CCn1c(-c2cccnc2C(C)OC)c2c3cc(ccc31)N1CCOC(CC(NC(=O)C(C(C)C)N(C)C(=O)C3(F)CCN(C(=O)C#CC(C)(C)N(C)C)CC3)C(=O)N3CCCC(N3)C(=O)OCC(C)(C)C2)C1 showed an IC50 (second compound 0.000949 µM) of under 0.949 nM, an IC50 (second compound 0.003 µM) of under 0.949 nM and an IC50 (second compound 0.00949 µM) of under 0.949 nM. For the same molecule, the IC50 (second compound 0.03 µM) was under 0.949 nM, the IC50 (second compound 0.0949 µM) was under 0.949 nM and the IC50 (second compound 0.3 µM) was under 0.949 nM. The viability, T/C (second compound 0.000949 µM, first compound 0.000949 µM) was 46.4%, the viability, T/C (second compound 0.000949 µM, first compound 0.003 µM) was 48.8% and the viability, T/C (second compound 0.000949 µM, first compound 0.00949 µM) was 35.2%. It also gave a viability, T/C (second compound 0.000949 µM, first compound 0.03 µM) of 57.9%, a viability, T/C (second compound 0.000949 µM, first compound 0.0949 µM) of 54.9% and a viability, T/C (second compound 0.000949 µM, first compound 0.3 µM) of 41.8%. It also gave a viability, T/C (second compound 0.003 µM, first compound 0.000949 µM) of 15.9%, a viability, T/C (second compound 0.003 µM, first compound 0.003 µM) of 14.2% and a viability, T/C (second compound 0.003 µM, first compound 0.00949 µM) of 17.2%. The viability, T/C (second compound 0.003 µM, first compound 0.03 µM) was 19.4%, the viability, T/C (second compound 0.003 µM, first compound 0.0949 µM) was 22.6% and the viability, T/C (second compound 0.003 µM, first compound 0.3 µM) was 20.4%. It also gave a viability, T/C (second compound 0.00949 µM, first compound 0.000949 µM) of 13.5%, a viability, T/C (second compound 0.00949 µM, first compound 0.003 µM) of 12.7% and a viability, T/C (second compound 0.00949 µM, first compound 0.00949 µM) of 16.5%. For the same molecule, the viability, T/C (second compound 0.00949 µM, first compound 0.03 µM) was 20.3%, the viability, T/C (second compound 0.00949 µM, first compound 0.0949 µM) was 20.1% and the viability, T/C (second compound 0.00949 µM, first compound 0.3 µM) was 21.1%. For the same molecule, the viability, T/C (second compound 0.03 µM, first compound 0.000949 µM) was 13.3%, the viability, T/C (second compound 0.03 µM, first compound 0.003 µM) was 16.3% and the viability, T/C (second compound 0.03 µM, first compound 0.00949 µM) was 17%. It also gave a viability, T/C (second compound 0.03 µM, first compound 0.03 µM) of 13.9%, a viability, T/C (second compound 0.03 µM, first compound 0.0949 µM) of 14.8% and a viability, T/C (second compound 0.03 µM, first compound 0.3 µM) of 21.1%. For the same molecule, the viability, T/C (second compound 0.0949 µM, first compound 0.000949 µM) was 12.1%, the viability, T/C (second compound 0.0949 µM, first compound 0.003 µM) was 17.4% and the viability, T/C (second compound 0.0949 µM, first compound 0.00949 µM) was 17.6%. For the same molecule, the viability, T/C (second compound 0.0949 µM, first compound 0.03 µM) was 19.6%, the viability, T/C (second compound 0.0949 µM, first compound 0.0949 µM) was 15.4% and the viability, T/C (second compound 0.0949 µM, first compound 0.3 µM) was 20.1%. It also gave a viability, T/C (second compound 0.3 µM, first compound 0.000949 µM) of 15.7%, a viability, T/C (second compound 0.3 µM, first compound 0.003 µM) of 15.3% and a viability, T/C (second compound 0.3 µM, first compound 0.00949 µM) of 16.7%. It also gave a viability, T/C (second compound 0.3 µM, first compound 0.03 µM) of 14.6%, a viability, T/C (second compound 0.3 µM, first compound 0.0949 µM) of 18.2% and a viability, T/C (second compound 0.3 µM, first compound 0.3 µM) of 20.9%.

— PubChem BioAssay AID2060893 (Molecular Pharmacology Branch, DTP, NCI, 2025)
